≈ marks a conversion by molar mass, not a printed value. Calls of active or inactive are those of the source. No cut-off for these calls is given here.
Tests used:
Klebsiella pneumoniae [1] = assay: Potency index, ratio of sulfisoxazole MIC to compound MIC for Klebsiella pneumoniae assessed as inhibition of DHPS-mediated bacterial growth incubated for 24 hrs by microbroth dilution method
Bacillus subtilis [2] = assay: Inhibition of DHPS in Bacillus subtilis assessed as antibacterial activity by measuring inhibition of bacterial growth incubated for 24 hrs by microbroth dilution method
Streptococcus pneumoniae [3] = assay: Inhibition of DHPS in Streptococcus pneumoniae assessed as antibacterial activity by measuring inhibition zone at 5 mg/mL incubated for 24 hrs by disk diffusion method
[4] = test system: Staphylococcus epidermidis; assay: Inhibition of DHPS in Staphylococcus epidermidis assessed as antibacterial activity by measuring inhibition of bacterial growth incubated for 24 hrs by microbroth dilution method
Bacillus subtilis [5] = assay: Inhibition of DHPS in Bacillus subtilis assessed as antibacterial activity by measuring inhibition zone at 5 mg/mL incubated for 24 hrs by disk diffusion method
Proteus vulgaris [6] = assay: Inhibition of DHPS in Proteus vulgaris assessed as antibacterial activity by measuring inhibition of bacterial growth incubated for 24 hrs by microbroth dilution method
Bacillus subtilis [7] = assay: Potency index, ratio of sulfisoxazole MIC to compound MIC for Bacillus subtilis assessed as inhibition of DHPS-mediated bacterial growth incubated for 24 hrs by microbroth dilution method
Geotrichum candidum [8] = assay: Potency index, ratio of sulfisoxazole MIC to compound MIC for Geotrichum candidum assessed as inhibition of DHPS-mediated fungal growth incubated for 48 hrs by microbroth dilution method
[9] = test system: Syncephalastrum racemosum; assay: Inhibition of DHPS in Syncephalastrum racemosum assessed as antifungal activity by measuring inhibition zone at 5 mg/mL incubated for 48 hrs by disk diffusion method
[10] = test system: Staphylococcus epidermidis; assay: Inhibition of DHPS in Staphylococcus epidermidis assessed as antibacterial activity by measuring inhibition zone at 5 mg/mL incubated for 24 hrs by disk diffusion method
[11] = test system: Escherichia coli ATCC 25922; assay: Inhibition of DHPS in Escherichia coli ATCC 25922 assessed as inhibition of bacterial growth incubated for 24 hrs in presence of folate dependent metabolite, methionine by microbroth dilution method
Escherichia coli [12] = assay: Inhibition of DHPS in Escherichia coli assessed as antibacterial activity by measuring inhibition of bacterial growth incubated for 24 hrs by microbroth dilution method
[13] = test system: Syncephalastrum racemosum; assay: Inhibition of DHPS in Syncephalastrum racemosum assessed as antifungal activity by measuring inhibition of fungal growth incubated for 48 hrs by microbroth dilution method
Geotrichum candidum [14] = assay: Inhibition of DHPS in Geotrichum candidum assessed as antifungal activity by measuring inhibition of fungal growth incubated for 48 hrs by microbroth dilution method
[15] = test system: Escherichia coli ATCC 25922; assay: Inhibition of DHPS in Escherichia coli ATCC 25922 assessed as inhibition of bacterial growth incubated for 24 hrs in presence of folate precursor, pABA by microbroth dilution method
[16] = test system: Syncephalastrum racemosum; assay: Potency index, ratio of amphotericin B MIC to compound MIC for Syncephalastrum racemosum assessed as inhibition of DHPS-mediated fungal growth incubated for 48 hrs by microbroth dilution method
[17] = test system: Staphylococcus epidermidis; assay: Potency index, ratio of sulfisoxazole MIC to compound MIC for Staphylococcus epidermidis assessed as inhibition of DHPS-mediated bacterial growth incubated for 24 hrs by microbroth dilution method
Klebsiella pneumoniae [18] = assay: Inhibition of DHPS in Klebsiella pneumoniae assessed as antibacterial activity by measuring inhibition zone at 5 mg/mL incubated for 24 hrs by disk diffusion method
Aspergillus fumigatus [19] = assay: Inhibition of DHPS in Aspergillus fumigatus assessed as antifungal activity by measuring inhibition zone at 5 mg/mL incubated for 48 hrs by disk diffusion method
Geotrichum candidum [20] = assay: Inhibition of DHPS in Geotrichum candidum assessed as antifungal activity by measuring inhibition zone at 5 mg/mL incubated for 48 hrs by disk diffusion method
Escherichia coli [21] = assay: Inhibition of DHPS in Escherichia coli assessed as antibacterial activity by measuring inhibition zone at 5 mg/mL incubated for 24 hrs by disk diffusion method
Aspergillus fumigatus [22] = assay: Inhibition of DHPS in Aspergillus fumigatus assessed as antifungal activity by measuring inhibition of fungal growth incubated for 48 hrs by microbroth dilution method
Klebsiella pneumoniae [23] = assay: Inhibition of DHPS in Klebsiella pneumoniae assessed as antibacterial activity by measuring inhibition of bacterial growth incubated for 24 hrs by microbroth dilution method
Proteus vulgaris [24] = assay: Inhibition of DHPS in Proteus vulgaris assessed as antibacterial activity by measuring inhibition zone at 5 mg/mL incubated for 24 hrs by disk diffusion method
Aspergillus fumigatus [25] = assay: Potency index, ratio of sulfisoxazole MIC to compound MIC for Aspergillus fumigatus assessed as inhibition of DHPS-mediated fungal growth incubated for 48 hrs by microbroth dilution method
Streptococcus pneumoniae [26] = assay: Inhibition of DHPS in Streptococcus pneumoniae assessed as antibacterial activity by measuring inhibition of bacterial growth incubated for 24 hrs by microbroth dilution method
Streptococcus pneumoniae [27] = assay: Potency index, ratio of sulfisoxazole MIC to compound MIC for Streptococcus pneumoniae assessed as inhibition of DHPS-mediated bacterial growth incubated for 24 hrs by microbroth dilution method
Escherichia coli [28] = assay: Potency index, ratio of sulfisoxazole MIC to compound MIC for Escherichia coli assessed as inhibition of DHPS-mediated bacterial growth incubated for 24 hrs by microbroth dilution method

Ratio (Klebsiella pneumoniae [1])	MIC (Bacillus subtilis [2])	inhibition zone (IZ) (Streptococcus pneumoniae [3])	MIC [4]	inhibition zone (IZ) (Bacillus subtilis [5])	MIC (Proteus vulgaris [6])	Ratio (Geotrichum candidum [8])	inhibition zone (IZ) [9]	inhibition zone (IZ) [10]	inhibition [11]	MIC (Escherichia coli [12])	MIC [13]	MIC (Geotrichum candidum [14])	inhibition [15]	Ratio [16]	Ratio [17]	inhibition zone (IZ) (Klebsiella pneumoniae [18])	inhibition zone (IZ) (Aspergillus fumigatus [19])	inhibition zone (IZ) (Geotrichum candidum [20])	inhibition zone (IZ) (Escherichia coli [21])	Compound	other results
4	0.49 µg/mL (≈ 1.13 µM)	21.7 mm	3.9 µg/mL (≈ 9 µM)	23.8 mm	3.9 µg/mL (≈ 9 µM)	6	20.4 mm	20.1 mm	inactive	1.95 µg/mL (≈ 4.5 µM)	3.9 µg/mL (≈ 9 µM)	0.24 µg/mL (≈ 0.554 µM)	inactive	2	2	24.2 mm	22.3 mm	25.2 mm	21.2 mm	C=CCN/C(S)=C(/C#N)C(=O)Nc1ccc(S(=O)(=O)Nc2onc(C)c2C)cc1	Ratio (Bacillus subtilis [7]): 2; MIC (Aspergillus fumigatus [22]): 0.49 µg/mL (≈ 1.13 µM); MIC (Klebsiella pneumoniae [23]): 0.49 µg/mL (≈ 1.13 µM); inhibition zone (IZ) (Proteus vulgaris [24]): 20.1 mm; Ratio (Aspergillus fumigatus [25]): 7; MIC (Streptococcus pneumoniae [26]): 0.98 µg/mL (≈ 2.26 µM)
8	0.98 µg/mL (≈ 1.33 µM)	22.2 mm	3.9 µg/mL (≈ 5.29 µM)	23.4 mm	7.81 µg/mL (≈ 10.6 µM)	3 to 5	19.9 mm	20.4 mm	inactive	3.9 µg/mL (≈ 5.29 µM)	3.9 µg/mL (≈ 5.29 µM)	1.95 µg/mL (≈ 2.64 µM)	inactive	1	2	22.1 mm	19.3 mm	21.2 mm	20.2 mm	CN/C(S[C@@H]1O[C@H](COC(C)=O)[C@@H](OC(C)=O)[C@H](OC(C)=O)[C@H]1OC(C)=O)=C(/C#N)C(=O)Nc1ccc(S(=O)(=O)Nc2onc(C)c2C)cc1	Ratio (Streptococcus pneumoniae [27]): 2; Ratio (Escherichia coli [28]): 4; MIC (Aspergillus fumigatus [22]): 3.9 µg/mL (≈ 5.29 µM); MIC (Klebsiella pneumoniae [23]): 0.98 µg/mL (≈ 1.33 µM); inhibition zone (IZ) (Proteus vulgaris [24]): 17.8 mm; Ratio (Aspergillus fumigatus [25]): 4 to 6; MIC (Streptococcus pneumoniae [26]): 0.98 µg/mL (≈ 1.33 µM)
